For `N#Cc1ccc(-c2ccc3oc(CCN)cc3c2)cc1`, the melting point was 118 to 120 °C.

As to `Cc1cc(OCCCC(C)(C)C(=O)O)c(C)c(C)c1OCc1ccccc1`, the melting point is 105 to 107 °C.

On to `N#Cc1ncn2c(C(F)(F)F)cc(-c3cccc(C(F)(F)F)c3)nc12`, for which the melting point stood at 202 °C.

Consider `CCCCCOc1nc(N)c2ncn(C3CCCCC3)c2n1`, for which the melting point lay in the range of 64 to 68 °C.

Consider `CC1OC(n2cnc3c(N)nc(F)nc32)C(O)C1O` (centres undefined), for which the melting point was 244 to 245 °C.

Molecule `CC(=O)Nc1cccc2c1C(=O)c1c-2n[nH]c1-c1ccc(N2CCOCC2)cc1` displayed a melting point of over 300 °C.

`Cc1ocnc1-c1cc(C(C)(C)C)c(O)c(C(C)(C)C)c1`: the melting point lay in the range of 105 to 107 °C.

In the case of `CCc1nc2c(N)nc3ccccc3c2n1CCCS(=O)(=O)N(C)C`, the melting point was in the range of 209 to 211 °C.

Consider `O=[N+]([O-])c1cnc2ccc(O)cc2c1-c1ccccc1`, for which the melting point was in the range of 282 to 284 °C.

As for `COc1ccc(C(=O)n2c3c(c4cc(F)ccc42)CC(C(=O)O)CC3)cc1` (centres undefined), the melting point lay in the range of 197 to 198 °C.

Turning to `COCn1c(-c2nccs2)c(Cl)c2cccc(NS(=O)(=O)c3cccs3)c21`, the melting point lay in the range of 128 to 129 °C.

Turning to `CCN1CCN(c2ccc(-c3ccc4c(Nc5ccc(Sc6nccn6C)c(Cl)c5)c(C#N)cnc4c3)nc2)CC1`, the melting point lay within 246 to 248 °C.

Consider `Cc1nc2ncnn2c(N[C@@H](C)c2ccc(F)cc2)c1Cl`, for which the melting point fell in the range of 103 to 104 °C.

With `CCC=C1SC(=O)N(CCCCOc2cccn3ccnc23)C1=O`, the melting point lay in the range of 70 to 71 °C.

`CNc1c(S(=O)(=O)C(F)(F)F)c(C)nn1-c1c(Cl)cc(C(F)(F)F)cc1Cl` gave a melting point of 139 to 140 °C.

For `COc1cc(OC)cc(N2CCN(C(=O)Nc3nc4ccccc4nc3OC)CC2)c1`, the melting point is 140 to 141 °C.

Regarding `O=C(O)c1ccc(OC2=C3N=C4CCCCC4=C3C(Cc3ccc(Cl)cc3)C=C2)o1` (centres undefined), the melting point lay in the range of 162 to 164 °C.

Consider `CC(=O)Nc1nc(-c2ccc(S(=O)(=O)CCO)cc2)cs1`, for which the melting point fell in the range of 258 to 260 °C.

Take `N#CC(Cl)Cc1ccccc1C(=O)O` (centres undefined): the melting point was in the range of 116 to 117 °C.

The molecule `COC(=O)C1=C(C)NC(C)=C(S(C)(=O)=O)C1c1ccccc1[N+](=O)[O-]` (centres undefined) displayed a melting point of 211 to 212 °C.

Regarding `CCOC(=O)C1CCCc2[nH]c3c(C)ccc(OC)c3c21` (centres undefined), the melting point was 119 to 122 °C.

Turning to `CC(C)(O)COc1ccc(/C=C/C(=O)O)c(Oc2ncc(C(F)(F)F)cc2Cl)c1`, the melting point lay in the range of 126 to 128 °C.

`Cc1cc(C)c(NC(=O)N(Cc2ccccc2)CC2(c3ccccc3)CCCC2)c(C)c1` displayed a melting point of 212 to 214 °C.

Consider `C=Cc1cc(OP(=O)(O)O)cc2nc(-c3ccc(OP(=O)(O)O)c(F)c3)oc12`, for which the melting point is over 180 °C.

The molecule `CCCCCCSc1ssc(=S)c1-c1cc(C(C)(C)C)c(O)c(C(C)(C)C)c1` displayed a melting point of 110 °C.

Take `CCCCNCc1cc(N)c(Cc2ccccc2)c(S(N)(=O)=O)c1`: the melting point was 141 to 143 °C.

Turning to `Clc1ccc2cc(CBr)c3ccsc3c2c1`, the melting point was in the range of 144 to 146 °C.

`CCOC(=O)C(Cc1ccc(O)cc1)Oc1ccc(F)cc1` (centres undefined): the melting point fell in the range of 80 to 81 °C.

In turn, `O=C1C2CC3CC1CC(c1cc(Br)ccc1O)(C3)C2` came in with a melting point of 287 to 289 °C.

In turn, `Cc1cncc(CNC(=O)c2sc(N3CCN(CC(C)C)C3=O)nc2C)n1` yielded a melting point of 139 to 142 °C.

`NC(=S)Nc1ccc2ccccc2n1` yielded a melting point of 179 to 180 °C.

The molecule `C=CC(=O)NC(C)(C)COc1ccc(Cl)cc1` returned a melting point of 95 to 96 °C.

As for `Cc1nc(N2CCN(Cc3cc(F)cc(F)c3)C2=O)sc1C(N)=O`, the melting point was over 200 °C.

Take `CSC(NCCNC(=O)OC(C)(C)C)=C(C#N)C#N`: the melting point lay in the range of 123 to 125 °C.

Molecule `O=C(O)c1ccc(F)c2c1C=CCO2` came in with a melting point of 224 to 226 °C.

`COC(=O)c1cc2c3cc(C)ccc3n(C)c2s1` registered a melting point of 152 to 155 °C.

In turn, `O=c1[nH]c2ccncc2c(=O)o1` registered a melting point of 180 °C.

Molecule `CC(C)c1csc2[nH]cc(C#N)c(=O)c12` registered a melting point of 285 °C.

`CC(=O)C1=C(O)C(=C(C)Nc2ccc(OC(=O)NCc3ccccc3)cc2)C(=O)OC1=O` registered a melting point of 195 to 197 °C.

Take `CN(C)CCCc1cc(C(=O)Nc2ccc(-c3ccc(C(=O)O)cc3)cc2)ccc1O`: the melting point lay in the range of 278 to 280 °C.

`CC(C)(C)OC(=O)N[C@@H](Cc1ccccc1)[C@@H](O)C[C@@H](Cc1ccc(O)cc1)C(=O)N[C@H]1c2ccccc2C[C@H]1O`: the melting point fell in the range of 218 to 219 °C.

`N#CSc1nc(Nc2ccc(Cl)cc2)ncc1[N+](=O)[O-]` yielded a melting point of 240 to 242 °C.

In the case of `O=C(Cl)c1cnoc1-c1ccc(Cl)cc1Cl`, the melting point lay in the range of 46 to 50 °C.

For the molecule `CC1(C)C2CCC(C2)C1CCC(O)CCC1C2CCC(C2)C1(C)C` (centres undefined), the melting point is 55 to 56 °C.

Regarding `CCOC(=O)c1cn(C2CC2)c2c(F)c(-c3cc(C)nc(C)c3)c(F)cc2c1=O`, the melting point lay in the range of 186 to 187 °C.

Regarding `COc1ccc(C(C)C)cc1-c1cc(C(=O)NC2CCN(C(=O)OC(C)(C)C)CC2)c(OCc2ccccc2)cc1OCc1ccccc1`, the melting point is 168 to 170 °C.

Regarding `CS(=O)(=O)c1ccc(-c2[nH]c3ccc(F)cc3c2-c2ccccc2)cc1`, the melting point lay in the range of 243 to 245 °C.

In turn, `CCOC(=O)NNC(=O)Cc1noc(C)n1` had a melting point of 122 to 124 °C.

Molecule `CSc1cc2ccccc2cc1C=O` came in with a melting point of 53.5 to 54.5 °C.

Take `CC(=O)OCN1C(=O)CON(C(C)=O)C1c1ccccc1` (centres undefined): the melting point lay in the range of 75 to 76 °C.

Turning to `CC(CCCc1ccccc1)c1cc2oc(=O)c3c(c2cc1O)C(=O)CCC3` (centres undefined), the melting point is 200 to 202 °C.

`Nc1ccc(Oc2ncc(-c3ccccc3)c(C(F)(F)F)n2)cc1` gave a melting point of 123 to 126 °C.

Consider `CCNC(=O)N(CC)C(=O)c1nc(Cl)c(Cl)[nH]1`, for which the melting point was 146 °C.

The molecule `Cc1nc(C)c(C(=O)Nc2cccc(Oc3ccc4nc(NC(=O)C5CC5)cn4n3)c2)s1` gave a melting point of 249 °C.

In the case of `COc1cc(C(O)(C(F)(F)F)C(F)(F)F)cc(C)c1O`, the melting point lay within 44 to 45 °C.

As for `C[C@H](CC#CC(C)(C)O)[C@H]1CCC[C@H]2[C@@H](O)CCC[C@]12C`, the melting point was in the range of 134 to 135 °C.

On to `CC[C@@]12C[C@@](C)(O)[C@](O)(c3ccccc3)C[C@H]1CCc1cc(OCC(C)(C)O)ccc12`, for which the melting point was in the range of 190 to 193 °C.

`CCCc1c(OCCCOc2ccc(C(=O)CCl)c(OC)c2CCC)ccc2c1OC(C(=O)OC)CC2` (centres undefined) yielded a melting point of 47 to 49 °C.

On to `O=C(O)c1cc(-n2c(-c3ccccc3)cc3c2CCCC3)cc(Br)c1O`, for which the melting point fell in the range of 209 to 210 °C.

In the case of `CC(C)Cn1c(=O)n(C)c(=O)c2c(SCCN(C)C)n(Cc3cccc4ccccc34)cc21`, the melting point lay in the range of 140 to 144 °C.

On to `Nc1nc(NC(CO)CO)c2ncn(C3C=CC(CO)C3)c2n1` (centres undefined), for which the melting point was in the range of 160 to 162 °C.

The molecule `Cc1ccc(C(=O)c2cc(C(C)(C)C)c(O)c(C(C)(C)C)c2)c(Cl)n1` registered a melting point of 116 to 117 °C.

Turning to `Nc1cccc(C(=O)Nc2ccccc2)c1`, the melting point lay in the range of 118 to 120 °C.

Molecule `COCc1c(S(C)(=O)=O)ccc(C(=O)C2C(=O)CCCC2=O)c1C` had a melting point of 192 to 198 °C.

By melting point is commonly meant the temperature of the solid-liquid transition.

For the origin of these results see a melting point compilation (Tetko et al.; mined from patent text by program, amines drawn as free bases though some values may be those of a salt).
